Measured values from patent US11242349B2, “Ethynyl derivatives” (Hoffmann-La Roche Inc., priority 2016, dated 2022).
Where two headings read alike, the source gives them in different places.

Experiments:
[1] = mice treated with MPTP; cited from earlier work
[2] = mice; preclinical model of anxiety; cited from earlier work
[3] = mice; preclinical model of anxiety; cited from earlier work; remark: listed apart in the source
[4] = cited from earlier work
[5] = molecular target: recombinant human mGlu4 expressed in HEK293 cells (Homo sapiens (Human), UniProt Q14833); experiment: Ca2+ mobilization in vitro assay, mGlu4 PAM; format: cell-based; conditions: for EC50: HEK293 cells, human mGlu4, with EC20 of L-AP4; for Eff. (%): maximal response in % of maximal stimulatory effect of saturating L-AP4
Protocol: Determination of EC50 values using a Ca2+ mobilization in vitro assay on recombinant human mGlu4 expressed in HEK293 cells:
A monoclonal HEK-293 cell line stably transfected with a cDNA encoding for the human mGlu4 receptor was generated; for the work with mGlu4 Positive Allosteric Modulators (PAMs), a cell line with low receptor expression levels and low constitutive receptor activity was selected to allow the differentiation of agonistic versus PAM activity. Cells were cultured according to standard protocols (Freshney, 2000) in Dulbecco's Modified Eagle Medium with high glucose supplemented with 1 mM glutamine, 10% (vol/vol) heat-inactivated bovine calf serum, Penicillin/Streptomycin, 50 μg/ml hygromycin and 15 μg/ml blasticidin (all cell culture reagents and antibiotics from Invitrogen, Basel, Switzerland). About 24 hrs before an experiment, 5×10^4 cells/well were seeded in poly-D-lysine coated, black/clear-bottomed 96-well plates. The cells were loaded with 2.5 μM Fluo-4AM in loading buffer (1×HBSS, 20 mM HEPES) for 1 hr at 37° C. and washed five times with loading buffer. The cells were transferred into a Functional Drug Screening System 7000 (Hamamatsu, Paris, France), and 11 half logarithmic serial dilutions of test compound at 37° C. were added and the cells were incubated for 10-30 min. with on-line recording of fluorescence. […] Graphs were plotted with the % maximal stimulatory using XLfit, a curve fitting program that iteratively plots the data using Levenburg Marquardt algorithm. The single site competition analysis equation used was y=A+((B-A)/(1+((x/C)D))), where y is the % maximal stimulatory effect, A is the minimum y, B is the maximum y, C is the EC50, x is the log 10 of the concentration of the competing compound and D is the slope of the curve (the Hill Coefficient).
FIG. 1: Illustration of the experimental outline for mGlu4 PAM Ca2+ mobilization screening assay and the determination of EC50 and % Emax values.

recombinant human mGlu4 expressed in HEK293 cells, sequence (Q14833 33-912): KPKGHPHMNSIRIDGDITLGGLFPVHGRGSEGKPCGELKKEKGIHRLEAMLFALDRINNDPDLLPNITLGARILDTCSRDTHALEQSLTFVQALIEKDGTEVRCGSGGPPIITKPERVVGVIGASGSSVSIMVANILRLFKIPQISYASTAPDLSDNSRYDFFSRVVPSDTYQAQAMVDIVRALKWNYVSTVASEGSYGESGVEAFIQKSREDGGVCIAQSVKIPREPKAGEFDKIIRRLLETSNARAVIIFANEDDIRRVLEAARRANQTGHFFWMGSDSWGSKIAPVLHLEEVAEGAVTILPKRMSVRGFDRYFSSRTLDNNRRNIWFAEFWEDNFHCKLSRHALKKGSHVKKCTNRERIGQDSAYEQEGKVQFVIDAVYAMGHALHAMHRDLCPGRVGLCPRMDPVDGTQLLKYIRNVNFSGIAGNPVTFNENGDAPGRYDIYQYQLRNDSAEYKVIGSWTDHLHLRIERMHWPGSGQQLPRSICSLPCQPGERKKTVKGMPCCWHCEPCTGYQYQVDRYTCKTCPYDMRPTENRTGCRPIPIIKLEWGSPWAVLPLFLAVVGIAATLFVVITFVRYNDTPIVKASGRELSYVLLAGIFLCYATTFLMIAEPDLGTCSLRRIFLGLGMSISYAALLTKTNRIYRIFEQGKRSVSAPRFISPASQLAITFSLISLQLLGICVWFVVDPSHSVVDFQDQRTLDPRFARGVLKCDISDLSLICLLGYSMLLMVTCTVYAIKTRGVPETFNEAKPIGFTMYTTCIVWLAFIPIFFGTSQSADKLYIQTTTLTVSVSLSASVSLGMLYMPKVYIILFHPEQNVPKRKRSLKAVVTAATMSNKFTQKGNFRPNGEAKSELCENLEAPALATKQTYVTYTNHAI

O=C(Nc1ccccc1)C12CC1/C(=N\O)c1ccccc1O2 (single isomer, unassigned; (-)) [(−)-PHCCC]
nigrostriatal degeneration [1]: reduced nigrostriatal degeneration

Cc1ccnc(Nc2nc(-c3cn[nH]c3)c(C)s2)n1 [ADX88178]
activity in EPM [2]: active | activity in marble burying test [3]: active | profile in rat EPM test ([4]; rat, after oral dosing): anxiolytic-like profile | activity in EPM ([4]; rats, preclinical model of anxiety): active

CCn1cc2c(n1)CCC[C@]21CC(=O)N(c2c(F)cc(C#Cc3ccccc3)cc2F)C(=O)N1C [Example 1, (4S)-3′-[2,6-Difluoro-4-(2-phenylethynyl)phenyl]-2-ethyl-1′-methyl-spiro[6,7-dihydro-5H-indazole-4,6′-hexahydropyrimidine]-2′,4′-dione]
EC50 [5]: 77 nM | Eff. (%) [5]: 132%

CCn1ncc2c1CCC[C@]21CC(=O)N(c2c(F)cc(C#Cc3ccccc3)cc2F)C(=O)N1C [Example 2, (4S)-3′-[2,6-Difluoro-4-(2-phenylethynyl)phenyl]-1-ethyl-1′-methyl-spiro[6,7-dihydro-5H-indazole-4,6′-hexahydropyrimidine]-2′,4′-dione]
EC50 [5]: 85 nM | Eff. (%) [5]: 136%
